# From patent US20240174723A1, “STAPLED ANTIMICROBIAL PEPTIDES (STAMPS) AND USES THEREOF” (Lytica Therapeutics, Inc., priority 2021, published 2024)
# Positions of bridges follow the written chain, without caps; N, C: chain ends. Non-standard residues stand in square brackets, D forms with d. Residues, ends and D or L forms follow the SMILES beside them. S5 = C=CCCC[C@](C)(N)C(=O)O
# Key:
# [1] = tested on: Human Liver Cells (HepG2); assay: in vitro; type: cell-based; settings: 48 hours
# Procedure, shortened: (§1)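 Cytotoxicity read by CellTiter-Glo luminescence after 48 h at 37 °C exposure to serially diluted StAMPs or vehicle. HepG2 cells were grown in EMEM plus 10% FBS and given 4 h to attach before dosing; peptides came from a 5 mg/mL aqueous stock.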
# [2] = tested on: Human Renal Proximal Tubule Epithelial Cells (RPTEC); assay: in vitro; type: cell-based; settings: 90 min
# Procedure, shortened: (§2)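 LDH release (absorbance at 490 nm) measured in the media of cells treated with serially diluted StAMPs or vehicle at 37 °C: 90 min for renal RPTEC, 48 h for liver HepG2. Cells were seeded overnight beforehand and media refreshed before dosing.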
# S. aureus = type: cell-based, Staphylococcus aureus
# Procedure, shortened: (§3)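 Visible-growth endpoint after 20-24 h at 37 °C defines the MIC. Test organisms, pre-grown to log phase, were exposed at 5×10^5 CFU/ml to peptide dilution series in standard or cation-adjusted Mueller-Hinton broth.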
# A. baumannii = type: cell-based, Acinetobacter baumannii
# Procedure, shortened: as §3
# E. coli = type: cell-based, Escherichia coli
# Procedure, shortened: as §3
# P. aeruginosa = type: cell-based, Pseudomonas aeruginosa
# Procedure, shortened: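 MIC taken as lowest peptide concentration with no visible growth after 20-24 h at 37 °C. Peptide serial dilutions from water stocks met P. aeruginosa inoculum (5×10^5 CFU/ml final) in MHB or MHB II, per a CLSI-adapted microbroth protocol.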
# K. pneumoniae = type: cell-based, Klebsiella pneumoniae
# Procedure, shortened: as §3
# in vitro [3] = type: cell-based; settings: human; 48 hours of incubation; read-out: Inhibitory Concentration at 50% Cytotoxicity (IC50) Human Liver Cells (HepG2)
# Procedure, shortened: as §1
# in vitro [4] = type: cell-based; settings: human; 90 minutes of incubation; read-out: Inhibitory Concentration at 50% Cytotoxicity (IC50) Human Renal Proximal Tubule Epithelial Cells (RPTEC)
# Procedure, shortened: as §2
Minimum Inhibitory Concentration (MIC) S. aureus (S. aureus) [µg/mL],Minimum Inhibitory Concentration (MIC) A. baumannii (A. baumannii) [µg/mL],Minimum Inhibitory Concentration (MIC) E. coli (E. coli) [µg/mL],SMILES,Inhibitory Concentration at 50% Cytotoxicity (IC50) Human Liver Cells (HepG2) [1] [µg/mL],Inhibitory Concentration at 50% Cytotoxicity (IC50) Human Renal Proximal Tubule Epithelial Cells (RPTEC) [2] [µg/mL],Minimum Inhibitory Concentration (MIC) P. aeruginosa (P. aeruginosa) [µg/mL],Minimum Inhibitory Concentration (MIC) K. pneumoniae (K. pneumoniae) [µg/mL],IC50 at 48 hours (in vitro [3]) [µg/mL],IC50 at 90 min (in vitro [4]) [µg/mL]
32,2,4,"CC(C)[C@@H]1NC(=O)[C@@](C)(NC(=O)[C@H](C)NC(=O)[C@H](CCCCN)NC(=O)CNC(=O)[C@H](Cc2ccccc2)NC(=O)[C@H](CCCCN)NC(=O)[C@H](CCCCN)NC(=O)[C@H](CCCCN)NC(=O)[C@H](CO)NC(=O)[C@H](Cc2c[nH]cn2)NC(=O)[C@]2(C)CCCC=CCCC[C@](C)(NC(=O)CN)C(=O)NCC(=O)N[C@@H](CCCCN)C(=O)N[C@@H](Cc3ccccc3)C(=O)N2)CCCC=CCCC[C@@](C)(C(=O)N[C@@H](C)C(=O)N[C@@H](CCCCN)C(=O)N[C@@H](CCCCN)C(N)=O)NC(=O)[C@H](CCC(=O)O)NC(=O)[C@H](Cc2c[nH]c3ccccc23)NC1=O (single isomer, unassigned) [compound 65]",150,110,–,–,–,–
>64,0.5,1,"CC(C)[C@@H]1NC(=O)[C@@](C)(NC(=O)[C@H](C)NC(=O)[C@H](CCCCN)NC(=O)CNC(=O)[C@H](Cc2ccccc2)NC(=O)[C@H](CCCCN)NC(=O)[C@H](CCCCN)NC(=O)[C@H](CCCCN)NC(=O)[C@H](CCCCN)NC(=O)[C@H](CCN)NC(=O)[C@]2(C)CCCC=CCCC[C@](C)(NC(=O)CN)C(=O)NCC(=O)N[C@@H](CCCCN)C(=O)N[C@@H](Cc3ccccc3)C(=O)N2)CCCC=CCCC[C@@](C)(C(=O)N[C@@H](C)C(=O)N[C@@H](CCCCN)C(=O)N[C@@H](CCCCN)C(N)=O)NC(=O)[C@H](CCC(=O)O)NC(=O)CNC1=O (single isomer, unassigned) [compound 79]",113,–,1,8,–,–

SMILES,Minimum Inhibitory Concentration (MIC) S. aureus (S. aureus) [µg/mL],Minimum Inhibitory Concentration (MIC) A. baumannii (A. baumannii) [µg/mL],Minimum Inhibitory Concentration (MIC) E. coli (E. coli) [µg/mL],Inhibitory Concentration at 50% Cytotoxicity (IC50) Human Liver Cells (HepG2) [1] [µg/mL],Inhibitory Concentration at 50% Cytotoxicity (IC50) Human Renal Proximal Tubule Epithelial Cells (RPTEC) [2] [µg/mL],Minimum Inhibitory Concentration (MIC) P. aeruginosa (P. aeruginosa) [µg/mL],Minimum Inhibitory Concentration (MIC) K. pneumoniae (K. pneumoniae) [µg/mL],IC50 at 48 hours (in vitro [3]) [µg/mL],IC50 at 90 min (in vitro [4]) [µg/mL]
"CC(C)[C@@H]1NC(=O)[C@@](C)(NC(=O)[C@H](C)NC(=O)[C@H](CCCCN)NC(=O)CNC(=O)[C@H](Cc2ccccc2)NC(=O)[C@H](CCCCN)NC(=O)[C@H](CCCCN)NC(=O)[C@H](CCCCN)NC(=O)[C@H](CCCCN)NC(=O)[C@H](CCCCN)NC(=O)[C@]2(C)CCCC=CCCC[C@](C)(NC(=O)CN)C(=O)NCC(=O)N[C@@H](CCCCN)C(=O)N[C@@H](Cc3ccccc3)C(=O)N2)CCCC=CCCC[C@@](C)(C(=O)N[C@@H](C)C(=O)N[C@@H](CCCCN)C(=O)N[C@@H](CCCCN)C(=O)NCC(=O)NCC(=O)N[C@@H](CCC(=O)O)C(N)=O)NC(=O)[C@H](CCC(=O)O)NC(=O)[C@H](Cc2ccccc2)NC1=O [compound 33] (H-G[S5]GKF[S5]KKKKKFGKA[S5]VFE[S5]AKKGGE-NH2; staple 2-6, 16-20)",>64,2,2,–,–,4,4,> 200,~200
